# pEC50, pIC50: −log10 of the molar value.
# Assays:
# [1] = tested on: K562 (lymphoma); test: alamarBlue viability assay, K562; type: cell-based; conditions: Homo sapiens, 72 hours
# Procedure: (§1) Additionally, the following cancer cell lines were used:
# (§2) Cells were grown in a humidified incubator at 37° C. in 5% CO2.
# (§3) Cells were plated in 96-well plates at a density of 6000 cells/well in 100 μl medium 24 h before addition of drugs. […] To do so, a drugs-dilution plate at twice the screening concentrations was prepared. 72 hours later, alamarBlue (Biosource, Invitrogen) viability assay was performed following manufacturer's protocol. In brief, alamarBlue diluted in media was added to cells to have a 5% solution. Cells were incubated at 37° C., 3 hours and at room temperature, 30 min. Cells with no drug and, cells with no drug and lysed with triton X-100 were used as controls. Fluorescence was monitored at 530 nm excitation and 590 nm emission wavelengths. Results were quantified using Infinite F200 Microplate Reader (Tecan Group, Ltd.). EC50 were calculated as the dose of drugs required to inhibit cell growth by 50%, with Origin 7.0 computer program.
# [2] = tested on: PC3 (prostate); test: alamarBlue viability assay, PC3; type: cell-based; conditions: 72 hours
# Procedure: as §1, §2, §3
# [3] = biological target: T1, human recombinant HDAC 2 (Homo sapiens, UniProt Q92769); test: HDAC inhibition assay (Fluor de Lys), HDAC2; type: biochemical; conditions: inhibitor-protein incubation 2 hours, reaction 1 h 30 min, 37° C.
# T1 construct: purchased BPS Bioscience 50002
# T1 sequence (Q92769 whole entry): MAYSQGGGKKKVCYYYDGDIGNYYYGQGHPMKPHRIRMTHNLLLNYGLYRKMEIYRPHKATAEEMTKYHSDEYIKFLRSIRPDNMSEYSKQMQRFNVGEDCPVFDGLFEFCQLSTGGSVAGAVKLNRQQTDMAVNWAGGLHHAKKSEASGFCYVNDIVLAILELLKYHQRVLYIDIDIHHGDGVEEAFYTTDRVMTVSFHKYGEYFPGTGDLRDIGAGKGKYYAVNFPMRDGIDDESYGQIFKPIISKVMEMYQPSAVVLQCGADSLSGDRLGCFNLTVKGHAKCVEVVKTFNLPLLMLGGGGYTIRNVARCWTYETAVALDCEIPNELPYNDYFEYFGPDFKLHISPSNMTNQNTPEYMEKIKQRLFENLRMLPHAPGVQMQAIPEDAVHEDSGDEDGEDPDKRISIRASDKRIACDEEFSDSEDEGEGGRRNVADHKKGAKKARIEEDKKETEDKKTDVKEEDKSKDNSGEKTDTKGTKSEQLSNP
# Procedure: (§4) All assays were carried out in the assay buffer: 50 mM Tris/Cl, pH 8.0, 137 mM NaCl, 2.7 mM KCl, 1 mM MgCl2).
# (§5) Reactions were carried out in a 96-wells microplate (Corning 96 well Flat Bottom Non-binding surface (black) ref. 3651).
# (§6) Potential inhibitors were added after five fold serial dilutions in DMSO. Final DMSO concentration in the assay microplate was kept at 2%.
# (§7) Afterwards, human recombinant HDAC1, HDAC 2 or HDAC 8 were added up to […] respectively in assay buffer. When necessary, the mixture was incubated at room temperature prior the addition of substrate.
# (§8) Total reaction volume of 50 μl. Human recombinant HDACs could be acquired from commercial sources (HDAC1: ref. #50001, BPS Bioscience™; HDAC 2: ref. #50002, BPS Bioscience™; HDAC 8: ref. #50008, BPS Bioscience™).
# (§9) Reactions were stopped with 50 μl Developer (KI-105 Fluor de Lys™, BIOMOL®) with 2 μmol/L trichostatin A (TSA, final concentration 1 μmol/L). After 20 minutes at 37° C., fluorescence (excitation 360 nm, emission 460 nm) was measured using an Infinite F200 fluorimeter (Tecan). Background was determined in reactions using substrate in the absence of enzyme.
# (§10) IC50 values are defined as the compound concentration at which the deacetylase activity is 50% inhibited. In these assays the following grading was used (I: IC50≦10 μM; II: 10 μM<IC50≦100 μM; III: 100 μM<IC50≦1 mM) The results obtained are summarized in Table 4.
# [4] = biological target: T2, human recombinant HDAC 8 (Homo sapiens, UniProt Q9BY41); test: HDAC inhibition assay (Fluor de Lys), HDAC8; type: biochemical; conditions: inhibitor-protein incubation 0 hours, reaction 3 hours, 37° C.
# T2 construct: purchased BPS Bioscience 50008
# T2 sequence (Q9BY41 1-377): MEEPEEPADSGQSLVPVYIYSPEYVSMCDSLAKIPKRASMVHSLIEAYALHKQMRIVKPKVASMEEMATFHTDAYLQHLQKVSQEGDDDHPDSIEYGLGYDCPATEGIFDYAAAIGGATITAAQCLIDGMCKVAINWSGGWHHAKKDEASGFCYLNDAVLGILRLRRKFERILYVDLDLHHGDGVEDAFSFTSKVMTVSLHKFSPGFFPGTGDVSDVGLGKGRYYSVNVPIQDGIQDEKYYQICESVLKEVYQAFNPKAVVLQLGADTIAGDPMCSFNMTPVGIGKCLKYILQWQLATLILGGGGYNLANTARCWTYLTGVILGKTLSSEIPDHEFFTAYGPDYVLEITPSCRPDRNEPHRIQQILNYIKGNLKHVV
# Procedure: as §4, §5, §6, §7, §8, §9, §10
# [5] = tested on: MDA-MB-435P (breast); test: alamarBlue viability assay, MDA-MB-435P; type: cell-based; conditions: 72 hours
# Procedure: as §1, §2
# (§11) Cells were plated in 96-well plates at a density of 6000 cells/well in 100 μl medium 24 h before addition of drugs. They were then added in concentrations from 100 μM to 0.45 nM (each concentration in triplicate). To do so, a drugs-dilution plate at twice the screening concentrations was prepared. 72 hours later, alamarBlue (Biosource, Invitrogen) viability assay was performed following manufacturer's protocol. In brief, alamarBlue diluted in media was added to cells to have a 5% solution. Cells were incubated at 37° C., 3 hours and at room temperature, 30 min. Cells with no drug and, cells with no drug and lysed with triton X-100 were used as controls. Fluorescence was monitored at 530 nm excitation and 590 nm emission wavelengths. Results were quantified using Infinite F200 Microplate Reader (Tecan Group, Ltd.). EC50 were calculated as the dose of drugs required to inhibit cell growth by 50%, with Origin 7.0 computer program.
# [6] = tested on: human colon cancer cell line HCT116; test: alamarBlue viability assay, HCT116; type: cell-based; conditions: HCT-116, 72 hours, dose required to inhibit cell growth by 50%
# Procedure: (§12) The human colon cancer cell line HCT116 and the human breast cancer cell line MCF-7 were from the American Type Culture Collection (ATCC; CCL-247 and HTB-22, respectively).
# (§13) The HCT116 cell line was maintained in DMEM GlutaMAX (Invitrogen) supplemented with 10% fetal calf serum and the MCF7 cell line was maintained in RPMI1640 GlutaMAX (Invitrogen) containing 1 mM sodium piruvate and 10% fetal calf serum.
# as §2, §3
# [7] = tested on: MDA-MB-468 (breast); test: alamarBlue viability assay, MDA-MB-468; type: cell-based; conditions: Homo sapiens, 72 hours
# Procedure: as §1, §2, §11
# [8] = biological target: T3, human recombinant HDAC1 (Homo sapiens, UniProt Q13547); test: HDAC inhibition assay (Fluor de Lys), HDAC1; type: biochemical; conditions: inhibitor-protein incubation 0 hours, reaction 3 hours, 25° C.
# T3 construct: purchased BPS Bioscience 50001
# T3 sequence (Q13547 whole entry): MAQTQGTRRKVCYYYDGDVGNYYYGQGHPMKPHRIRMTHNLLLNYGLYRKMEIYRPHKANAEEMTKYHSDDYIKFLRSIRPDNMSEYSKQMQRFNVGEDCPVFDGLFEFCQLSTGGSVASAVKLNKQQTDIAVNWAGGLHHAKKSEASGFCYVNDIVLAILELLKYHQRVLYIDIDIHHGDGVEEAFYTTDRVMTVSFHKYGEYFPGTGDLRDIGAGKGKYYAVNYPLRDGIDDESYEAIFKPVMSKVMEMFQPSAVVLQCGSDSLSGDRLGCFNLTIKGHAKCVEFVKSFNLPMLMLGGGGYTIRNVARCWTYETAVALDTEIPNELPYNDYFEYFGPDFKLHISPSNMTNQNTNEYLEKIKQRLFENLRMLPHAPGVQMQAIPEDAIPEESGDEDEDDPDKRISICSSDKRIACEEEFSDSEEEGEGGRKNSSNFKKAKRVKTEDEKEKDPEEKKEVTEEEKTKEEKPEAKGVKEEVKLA
# Procedure: as §4, §5, §6, §7, §8, §9
# (§14) IC50 values are defined as the compound concentration at which the deacetylase activity is 50% inhibited. […]
# [9] = tested on: HepG2 (hepatocarcinoma); test: alamarBlue viability assay, HepG2; type: cell-based; conditions: Homo sapiens, 72 hours
# Procedure: as §1, §2, §11
# [10] = tested on: Hep3B (hepatocarcinoma); test: alamarBlue viability assay, Hep3B; type: cell-based; conditions: Homo sapiens, 72 hours
# Procedure: as §1, §2, §3
# [11] = tested on: SK-mel-98 (melanoma); test: alamarBlue viability assay, SK-mel-98; type: cell-based; conditions: 72 hours
# Procedure: as §1, §2, §11
# [12] = tested on: T98G (glioblastoma); test: alamarBlue viability assay, T98G; type: cell-based; conditions: Homo sapiens, 72 hours
# Procedure: as §1, §2, §11
# [13] = tested on: A549 (lung); test: alamarBlue viability assay, A549; type: cell-based; conditions: Homo sapiens, 72 hours
# Procedure: as §1, §2, §11
# [14] = tested on: NP-9 (pancreas); test: alamarBlue viability assay, NP-9; type: cell-based; conditions: 72 hours
# Procedure: The NP-9 cell line from pancreas, was provided by Dr. R. Alemany from Translational Research Laboratory (Institut Catala d'Oncologia). (cf., Cascallò, M. et al., “Ras-dependent Oncolysis with an Adenovirus VAI mutant”, Cancer Research, 2003, 63, 5544-5550). This cells was maintained in DMEM:F12 (Invitrogen) supplemented with 10% fetal calf serum (Invitrogen), L-glutamine […] (Invitrogen), pyruvate […] (Invitrogen).
# as §2
# as §11, with “EC50 were calculated as the dose of drugs required to inhibit cell growth by 50%, with Origin 7.0 computer program.” left out
# [15] = tested on: U87 (glioblastoma); test: alamarBlue viability assay, U87; type: cell-based; conditions: 72 hours
# Procedure: as §1, §2, §11
# [16] = tested on: human breast cancer cell line MCF-7; test: alamarBlue viability assay, MCF-7; type: cell-based; conditions: MCF7, 72 hours, dose required to inhibit cell growth by 50%
# Procedure: as §12, §13, §2, §3
# [17] = tested on: HDACs; test: HDAC inhibition assays, isoform not specified; type: biochemical, human; conditions: result in words
# Procedure: as §4, §5, §6, §7, §8, §9, §14
Structure (SMILES),pEC50 [1],pEC50 [2],pIC50 [3],pIC50 [4],pEC50 [5],pEC50 [6],pEC50 [7],pIC50 [8],pEC50 [9],pEC50 [10],pEC50 [11],pEC50 [12],pEC50 [13],pEC50 [15],pEC50 [16],pEC50 [14],inhibition of the target of these compounds (i.e. HDACs) [17]
"O=C(O)C(CCCc1ccccc1)CCc1ccccc1 (stereo not shown) [Example 11, 5-Phenyl-2-(2-phenylethyl)pentanoic acid]",,,3.00 to 4.00,4.00 to 5.00,3.60,3.75,,3.00 to 4.00,,,,,,,3.57,,
"O=C(O)C(CCc1ccccc1)Cc1ccccc1 (stereo not shown) [Example 9, 2-Benzyl-4-phenylbutanoic acid]",3.33,3.44,,3.00 to 4.00,3.62,3.20,3.44,,,,,,,,2.97,,
"CNS(=O)(=O)c1ccc(CC(CCc2ccccc2)C(=O)O)cc1 (stereo not shown) [Example 12, 2-{4-[(methylamino)sulfonyl]benzyl}-4-phenylbutanoic acid]",,,,3.00 to 4.00,,2.30,,,,,,,,,2.30,,clear inhibition

# Now from value to compound, other results behind:
pEC50 [1],pEC50 [2],pIC50 [3],pIC50 [4],pEC50 [5],pEC50 [6],pEC50 [7],pIC50 [8],pEC50 [9],pEC50 [10],pEC50 [11],pEC50 [12],pEC50 [13],pEC50 [15],pEC50 [16],Structure (SMILES),pEC50 [14],inhibition of the target of these compounds (i.e. HDACs) [17]
5.59,3.47,3.00 to 4.00,4.00 to 5.00,3.68,4.12,4.06,,,,,,,,,"COc1ccc(NS(=O)(=O)c2cccc(CCCC(CCc3ccccc3)C(=O)O)c2)cc1OC (stereo not shown) [Example 43, 5-(3-{[(3,4-dimethoxyphenyl)amino]sulfonyl}phenyl)-2-(2-phenylethyl)pentanoic acid]",,
,,3.00 to 4.00,4.00 to 5.00,,3.19,,3.00 to 4.00,,,,,,,,"CNS(=O)(=O)c1cccc(CCCC(CCc2ccccc2)C(=O)O)c1 (stereo not shown) [Example 41, 5-(3-[(Methylamino)sulfonyl]phenyl)-2-(2-phenylethyl)pentanoic acid]",,
,4.25,4.00 to 5.00,≥ 5.00,4.28,4.27,4.00,,3.99,3.97,4.11,3.93,4.21,4.37,,"CCc1ccc(CCC(CCCc2ccc(S(=O)(=O)Nc3ccccc3)cc2)C(=O)O)cc1 (stereo not shown) [Example 46, 5-[4-(Anilinosulfonyl)phenyl]-2-[2-(4-ethylphenyl)ethyl]pentanoic acid]",3.99,
3.80,3.77,4.00 to 5.00,4.00 to 5.00,3.90,4.01,4.26,,3.85,4.00,3.77,3.93,3.98,3.98,,Cc1ccc(NS(=O)(=O)c2cccc(CCCC(CCc3ccccc3)C(=O)O)c2)cc1 (stereo not shown) [Example 36],4.39,

# Reference: patent US20110105544A1, “CARBOXYLIC DERIVATIVES FOR USE IN THE TREATMENT OF CANCER” (priority 2007, published 2011)
